Measurements taken from US20160194358A1, “LINEAR PEPTIDE ANTIBIOTCS” (priority 2013, published 2016).
Values after ≈ are worked out from the molar mass of the structure shown. Where two headings read alike, the source gives them in different places. *1 amine or outer side, *2 acyl side, *3 side chain or, on linkers, in order; H or OH if unused. Where a SMILES comes first, the peptide text is derived from it. [ ]: non-standard residue; d: D form. The star is where a group is joined. boroAla((+)-pinanediol) = C[C@H](N*)B1O[C@@H]2C[C@@H]3C[C@@H](C3(C)C)[C@]2(C)O1; Benzoyl(4-(4-Cl-Ph)) = O=C(c1ccc(-c2ccc(Cl)cc2)cc1)*; X11 = CCCCc1ccc(-c2nc(C(=O)*)cs2)cc1; X10 = O=C(c1ccc(-c2ccc(Cl)cc2)nc1)*; X1 = C[C@H](N[*:1])C(=O)C(=O)[*:2]; X3 = CCCCc1ccc(C2CCN(*)CC2)cc1; X2 = C[C@H](N*)C(=O)c1ncco1; Decanoyl = CCCCCCCCCC(=O)*; boroAla = C[C@H](N*)B(O)O; Dab = NCC[C@H](N)C(=O)O; Dap = NC[C@H](N)C(=O)O; CO = O=C([*:1])[*:2]; NHtBu = CC(C)(C)N*; X13 = COCCCN*

What was measured:
[1] = tested on: Escherichia coli strain MC4100 IMP-4213, which harbors an LptD mutation; details: E. coli MC4100 IMP-4213, 35° C., 22 hours
In short: (§1)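 CLSI broth microdilution in cation-adjusted Mueller Hinton Broth with 0.002% Tween-80, two-fold dilutions starting at 64 μg/ml.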

[2] = tested on: methicillin resistant Staphylococcus aureus (MRSA) strain USA300 (NRS384); details: MRSA USA300 (NRS384), 35° C., 22 hours
In short: as §1

E. coli SPase = molecular target: T1, E. coli SPase (Escherichia coli, UniProt P00803); experiment: Biochemical SPase activity assay, fluorogenic peptide substrate, E. coli enzyme; details: 20 μM substrate, 10 minutes preincubation, read-out: IC 50 (nM) E. coli
T1 construct: Full length His-tagged E. coli SPase proteins; His; made in house; host or cells: E. coli BL21(DE3)

S. aureus SPase = S. aureus SPase (Staphylococcus aureus, UniProt P0A070); experiment: biochemical; details: IC 50 (nM) S. aureus, 20 μM substrate, 10 minutes preincubation
S. aureus SPase, sequence (P0A070 whole entry): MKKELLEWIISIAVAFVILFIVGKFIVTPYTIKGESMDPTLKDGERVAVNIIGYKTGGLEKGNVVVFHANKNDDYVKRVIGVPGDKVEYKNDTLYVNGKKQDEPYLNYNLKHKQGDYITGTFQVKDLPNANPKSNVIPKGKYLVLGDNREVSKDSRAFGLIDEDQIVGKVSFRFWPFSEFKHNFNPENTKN

T1 sequence (P00803 whole entry): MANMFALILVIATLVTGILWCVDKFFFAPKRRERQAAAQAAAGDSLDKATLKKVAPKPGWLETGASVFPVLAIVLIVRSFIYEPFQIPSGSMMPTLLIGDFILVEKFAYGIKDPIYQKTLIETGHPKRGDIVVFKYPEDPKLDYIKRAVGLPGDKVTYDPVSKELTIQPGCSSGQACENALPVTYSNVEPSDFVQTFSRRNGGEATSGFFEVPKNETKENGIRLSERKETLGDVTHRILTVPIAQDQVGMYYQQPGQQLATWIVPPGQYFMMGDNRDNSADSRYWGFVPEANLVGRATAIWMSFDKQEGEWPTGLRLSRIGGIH

Row | Compound | MIC (μg/mL) E. coli [1] [µg/mL] | MIC (μg/mL) S. aureus [2] [µg/mL] | IC50 (E. coli SPase) [nM] | IC50 (S. aureus SPase) [nM] | MIC (μg/mL) E. coli ([1]; listed as 201 P2) [µg/mL] | MIC (μg/mL) S. aureus ([2]; listed as 201 P2) [µg/mL] | MIC (μg/mL) E. coli ([1]; listed as 207 P2) [µg/mL] | MIC (μg/mL) S. aureus ([2]; listed as 207 P2) [µg/mL]
1 | C[C@H](NC(=O)[C@@H](NC(=O)[C@H](CN)NC(=O)c1ccc(-c2ccc(Cl)cc2)cc1)[C@@H](C)O)C(=O)N[C@@H](CCCCN)C(=O)N[C@@H](C)C(=O)C(=O)NC(C)(C)C [Compound 108] ({Benzoyl(4-(4-Cl-Ph))}-[Dap]TAK[X1]-NHtBu) | >64 | >64 | 930 | 3700 | – | – | – | –
2 | CCCCc1ccc(-c2nc(C(=O)N[C@@H](CCN)C(=O)N[C@H](C(=O)N[C@@H](C)C(=O)N[C@@H](CCCCN)C(=O)N[C@@H](C)B3O[C@@H]4C[C@@H]5C[C@@H](C5(C)C)[C@]4(C)O3)[C@@H](C)O)cs2)cc1 [Compound 121] (X11-[Dab]TAK-{boroAla((+)-pinanediol)}) | 1.3 (≈ 1.5 µM) | 0.4 (≈ 0.461 µM) | 54 | 280 | – | – | – | –
3 | CCCCc1ccc(-c2ccc(C(=O)N[C@@H](CCN)C(=O)N[C@H](C(=O)N[C@@H](C)C(=O)N[C@@H](CCCCN)C(=O)N[C@@H](C)C(=O)C3CO3)[C@@H](C)O)cc2)cc1 (single isomer, unassigned) [Compound 201 P2] | – | – | 150 | 210 | 5.7 (≈ 7.58 µM) | 2 (≈ 2.66 µM) | – | –
4 | CCCCc1ccc(C2CCN(C(=O)N[C@@H](CCCCN)C(=O)N[C@H](C(=O)N[C@@H](C)C(=O)N[C@@H](CCCCN)C(=O)N[C@@H](C)B3O[C@@H]4C[C@@H]5C[C@@H](C5(C)C)[C@]4(C)O3)[C@@H](C)O)CC2)cc1 [Compound 127] ({X3-CO}-KTAK-{boroAla((+)-pinanediol)}) | 32 (≈ 35.8 µM) | 2 (≈ 2.23 µM) | 64 | 210 | – | – | – | –
5 | CCCCc1ccc(-c2ccc(C(=O)N[C@@H](CCN)C(=O)N[C@H](C(=O)N[C@@H](C)C(=O)N[C@@H](CCCCN)C(=O)N[C@@H](C)C(=O)C3(C)CO3)[C@@H](C)O)cc2)cc1 (single isomer, unassigned) [Compound 207 P2] | – | – | 9900 | 1300 | – | – | 32 (≈ 41.8 µM) | 32 (≈ 41.8 µM)
6 | COCCCNC(=O)C(=O)[C@H](C)NC(=O)[C@H](CCCCN)NC(=O)[C@H](C)NC(=O)[C@@H](NC(=O)[C@H](CN)NC(=O)c1ccc(-c2ccc(Cl)cc2)cc1)[C@@H](C)O [Compound 101] ({Benzoyl(4-(4-Cl-Ph))}-[Dap]TAK[X1]-X13) | >64 | >64 | 870 | 1600 | – | – | – | –
7 | CCNC(=O)C(=O)[C@H](C)NC(=O)[C@H](CCCCN)NC(=O)[C@H](C)NC(=O)[C@@H](NC(=O)[C@H](CN)NC(=O)c1ccc(-c2ccc(Cl)cc2)cc1)[C@@H](C)O [Compound 102] ({Benzoyl(4-(4-Cl-Ph))}-[Dap]TAK[X1]-NHEt) | >64 | 32 (≈ 42.9 µM) | 440 | 580 | – | – | – | –
8 | C[C@H](NC(=O)[C@@H](NC(=O)[C@H](CN)NC(=O)c1ccc(-c2ccc(Cl)cc2)cc1)[C@@H](C)O)C(=O)N[C@@H](CCCCN)C(=O)N[C@@H](C)C(=O)c1ncco1 [Compound 212] ({Benzoyl(4-(4-Cl-Ph))}-[Dap]TAK-X2) | 64 (≈ 86.3 µM) | 45 (≈ 60.7 µM) | 34 | 2600 | – | – | – | –
9 | CCCCCCCCCC(=O)N[C@@H](CCN)C(=O)N[C@H](C(=O)N[C@@H](C)C(=O)N[C@@H](CCCCN)C(=O)N[C@@H](C)B(O)O)[C@@H](C)O [Compound 120] (Decanoyl-[Dab]TAK-boroAla) | 11 (≈ 17.1 µM) | 2.8 (≈ 4.35 µM) | 21 | 120 | – | – | – | –
10 | C[C@H](NC(=O)[C@H](CCCCN)NC(=O)[C@H](C)NC(=O)[C@@H](NC(=O)[C@H](CCN)NC(=O)c1ccc(-c2ccc(Cl)cc2)nc1)[C@@H](C)O)B1O[C@@H]2C[C@@H]3C[C@@H](C3(C)C)[C@]2(C)O1 [Compound 118] (X10-[Dab]TAK-{boroAla((+)-pinanediol)}) | 8 (≈ 9.53 µM) | 2 (≈ 2.38 µM) | 15 | 70 | – | – | – | –
11 | COC(=O)CNC(=O)C(=O)[C@H](C)NC(=O)[C@H](CCCCN)NC(=O)[C@H](C)NC(=O)[C@@H](NC(=O)[C@H](CN)NC(=O)c1ccc(-c2ccc(Cl)cc2)cc1)[C@@H](C)O [Compound 111] ({Benzoyl(4-(4-Cl-Ph))}-[Dap]TAK[X1]G-OMe) | 16 (≈ 20.3 µM) | 16 (≈ 20.3 µM) | 360 | 690 | – | – | – | –
